Test results taken from patent US20230128412A1, “METHODS FOR ENHANCING RECOMBINANT ADENO-[…] YIELD” (Ultragenyx Pharmaceutical Inc., priority 2020, published 2023).

Legend:
Type in all cases: cell-based
HEK293 cells (rAAV8-OTC) [1] = test: Effect of additional compounds on rAAV production with HEK293 cells, 24 deep-well plates; conditions: for rAAV titers (summary statement): HEK293 cells
Source text: In this example, the effect of compounds other than niacinamide on rAAV production in HEK293 cells was examined. The compounds analyzed in this example included niacin, methyl nicotinate, myo-inositol, pantothenic acid, pyridoxine, choline, thiamine, glucosamine, caffeine, n-acetyl glucosamine, and thymidine.
The experiment was run in 24 deep-well plates using the same cells as described in Example 5 under similar transfection and culture conditions. The concentrations of each compound tested were 1 mM, 3 mM, and 9 mM. […] None of the other compounds tested provided a significant benefit to rAAV titer at any of the three concentrations tested.

[2] = test system: HeLa producer cell line (AAVrh10-FIX); test: Effect of vessel scale (24-DW vs 100 mL shake flask) with niacinamide on rAAV production; conditions: scale removed as a factor; all niacinamide concentrations
Description: In this example, the effect of scale using two common vessels (3 mL-deep well (“24-DW”) and 100 mL shake flask (“Flasks”)) with niacinamide on rAAV production was tested. The analysis was conducted using a HeLa producer cell line capable of producing a Clade E rAAV encoding a Factor IX transgene (AAVrh10-FIX). FIG. 3 depicts a bar graph showing rAAV titer (GC/mL) at varying niacinamide concentrations at the different scales. […] The scale and interaction factors were insignificant (p=0.3915 and p=0.1353 respectively).

[3] = test system: HeLa producer cell line clones (AAV9-ATP7B); test: Effect of niacinamide on rAAV production with Clade F HeLa clones, 2 L bioreactor; conditions: 3 mM niacinamide, both clones
Description: In this example, the effect of 3 mM niacinamide on two HeLa producer cell line clones expressing recombinant Clade F AAV encoding a truncated ATP7B transgene (AAV9-ATP7B) was examined in a 2 L bioreactor.

[4] = test system: HeLa clones (AAVrh10-FIX, AAV8-G6Pase, AAVhu37-FVIII); test: Effect of niacinamide on rAAV production with Clade E HeLa clones; conditions: between 1 mM and 5 mM niacinamide; all four clones
Description: (§1) In this example, the effect of various concentrations of niacinamide ranging from 0.1 mM to 40 mM on rAAV production was tested in a variety HeLa producer cell lines. The experiment was run in a 24 deep-well plate culture system with a 3 mL working volume, a seeding density of 0.2×10^6 cells in cell culture production medium, and an Ad5 multiplicity of infection (MOI) of 200 vp/cell. […] The capsid serotypes included in this analysis were AAV8, AAV9, rh10, and hu37.
Four different HeLa clones were tested using the conditions described in Example 1. FIG. 4A-D show the rAAV titer (GC/mL) per varying niacinamide concentrations for Clone 1 (AAVrh10-FIX) follow-up supernatant, clone 2 (AAV8-G6Pase) supernatant, Clone 3 (AAV8-G6Pase) wide range with no supplement, and Clone 4 (AAVhu37-FVIII) wide range no supplement suspension (i.e., Triton-lysed sample), respectively.

HeLa producer cells = test: Effect of niacinamide concentration on rAAV production, HeLa producer cell lines, 24 deep-well plate; conditions: for normalized volumetric rAAV titer: Clade E and F rAAV
Description: as §1

HEK293 cells (rAAV8-OTC) [5] = test: Effect of niacinamide concentration on rAAV production with HEK293 cells
Description: In this example, the effect of various concentrations of niacinamide ranging from 0.03 mM to 30 mM on rAAV production was tested with HEK293 cells. The experiment was run in 30 mL flasks using a transfection density of 1.3×10^6 to 2.0×10^6 cells/mL. The HEK293 cells used in this experiment were transfected with plasmids enabling the production of rAAV8 encoding an ornithine transcarbamylase (rAAV8-OTC).

[6] = niacinamide between 1 mM and 10 mM

C[N+](C)(C)CCO [choline]
increase in titer (HEK293 cells (rAAV8-OTC) [1]; 3 mM compound): 65% | rAAV titers (summary statement) (HEK293 cells (rAAV8-OTC) [1]): can boost rAAV titers

COC(=O)c1cccnc1 [methyl nicotinate]
increase in titer (HEK293 cells (rAAV8-OTC) [1]; 3 mM compound): 42% | rAAV titers (summary statement) (HEK293 cells (rAAV8-OTC) [1]): can boost rAAV titers

OC1C(O)C(O)C(O)C(O)C1O (centres unmarked) [myo-inositol]
increase in titer (HEK293 cells (rAAV8-OTC) [1]; 3 mM compound): approximately 20% | increase in titer (HEK293 cells (rAAV8-OTC) [1]; 9 mM compound): approximately 20% | rAAV titers (summary statement) (HEK293 cells (rAAV8-OTC) [1]): can boost rAAV titers

O=C(O)c1cccnc1 [niacin]
increase in titer (HEK293 cells (rAAV8-OTC) [1]; 1 mM compound): 20% | rAAV titers (summary statement) (HEK293 cells (rAAV8-OTC) [1]): can boost rAAV titers

NC(=O)c1cccnc1 [niacinamide]
rAAV titer, Dunnett's Test [2]: significance at all concentrations | rAAV titer [3]: significant titer increase | rAAV titer (GC/mL) [4]: titer increase | niacinamide concentration of predicted maximum rAAV titer (3rd-order polynomial fit) (HeLa producer cells; fit of normalized titer data points, FIG. 2): 5 mM | normalized volumetric rAAV titer (HeLa producer cells; niacinamide 0.1 mM to 10 mM, relative to no niacinamide): Increases in rAAV titer | normalized volumetric rAAV titer (GC/mL), 3rd-order polynomial fit (HeLa producer cells; [6]): Significant increases in rAAV titer | normalized volumetric rAAV titer (HeLa producer cells; [6]): most significant increases | rAAV titer (HEK293 cells (rAAV8-OTC) [5]; 0.3 mM niacinamide, 30 mL flasks): increases in titer | rAAV titer (HEK293 cells (rAAV8-OTC) [5]; 3 mM niacinamide, 30 mL flasks): increases in titer | rAAV titer (HEK293 cells (rAAV8-OTC) [5]; repeat run at 2 L bioreactor scale (data not shown)): increase in titer | level of benefit to rAAV titer compared with the other compounds (HEK293 cells (rAAV8-OTC) [1]; niacinamide versus the 11 compounds of Example 6): substantially and surprisingly superior to the other 11 compounds examined
